From the supplement of paper PMC13380429

Key:
Settings in all cases: 72 h
Caco-2 [1] = experiment: cell viability relative to DMSO; higher = less toxic
Calu-3 [2] = experiment: as above
Vero E6 [3] = experiment: as above
U2OS [4] = experiment: as above
HepG2 [5] = experiment: as above
Caco-2 [6] = experiment: drug sensitivity score (DSS) for viability; higher = more toxic; extreme values may be limits of the assay
Calu-3 [7] = experiment: as above
Vero E6 [8] = experiment: as above
U2OS [9] = experiment: as above
HepG2 [10] = experiment: as above
Caco-2 [11] = experiment: relative viability EC50 (midpoint between 100% and the lowest measured viability); higher = less toxic
Vero E6 [12] = experiment: as above
U2OS [13] = experiment: as above
HepG2 [14] = experiment: as above
Calu-3 [15] = experiment: as above

SMILES | cell viability (Caco-2 [1]; 1 nM) [%] | cell viability (Caco-2 [1]; 10 nM) [%] | cell viability (Caco-2 [1]; 100 nM) [%] | cell viability (Caco-2 [1]; 1000 nM) [%] | cell viability (Caco-2 [1]; 10000 nM) [%] | cell viability (Calu-3 [2]; 1 nM) [%] | cell viability (Calu-3 [2]; 10 nM) [%] | cell viability (Calu-3 [2]; 100 nM) [%] | cell viability (Calu-3 [2]; 1000 nM) [%] | cell viability (Calu-3 [2]; 10000 nM) [%] | cell viability (Vero E6 [3]; 1 nM) [%] | cell viability (Vero E6 [3]; 10 nM) [%] | cell viability (Vero E6 [3]; 100 nM) [%] | cell viability (Vero E6 [3]; 1000 nM) [%] | cell viability (Vero E6 [3]; 10000 nM) [%] | cell viability (U2OS [4]; 1 nM) [%] | cell viability (U2OS [4]; 10 nM) [%] | cell viability (U2OS [4]; 100 nM) [%] | cell viability (U2OS [4]; 1000 nM) [%] | cell viability (U2OS [4]; 10000 nM) [%] | cell viability (HepG2 [5]; 1 nM) [%] | cell viability (HepG2 [5]; 10 nM) [%] | cell viability (HepG2 [5]; 100 nM) [%] | cell viability (HepG2 [5]; 1000 nM) [%] | cell viability (HepG2 [5]; 10000 nM) [%] | drug sensitivity score (Caco-2 [6]) | drug sensitivity score (Calu-3 [7]) | drug sensitivity score (Vero E6 [8]) | drug sensitivity score (U2OS [9]) | drug sensitivity score (HepG2 [10]) | relative viability EC50 (Caco-2 [11]) [µM] | relative viability EC50 (Vero E6 [12]) [µM] | relative viability EC50 (U2OS [13]) [µM] | relative viability EC50 (HepG2 [14]) [µM] | relative viability EC50 (Calu-3 [15]) [µM]
Cc1ccc(CCCO)c(NCc2ccc3nc(NCCCN4CCOCC4)n(Cc4nc(C)ccc4O)c3c2)c1 | 101 | 97.7 | 97.6 | 101 | 90 | 115 | 96.4 | 104 | 93.6 | 74.8 | 99.6 | 92.7 | 97.7 | 102 | 102 | 98.1 | 97.1 | 97.6 | 96.5 | 95.1 | 89.5 | 100 | 103 | 109 | 89.1 | 0 | 1.9 | 0 | 0 | 0 | > 10 | > 10 | > 10 | > 10 | –
Cn1c(-c2ccccc2)nnc1S(C)(=O)=O | 93 | 85.8 | 103 | 103 | 103 | – | – | – | – | – | 89.6 | 92.9 | 99.3 | 94.9 | 105 | 99.4 | 96.9 | 96.4 | 99.3 | 103 | 97.4 | 99.1 | 99.1 | 93.9 | 94.5 | 0 | – | 0 | 0 | 0 | > 10 | > 10 | > 10 | > 10 | –
O=C(Nc1ccc(S(=O)(=O)C(F)(F)F)cc1)C1=CCN(c2ncccc2C(F)(F)F)CC1 | 97.3 | 98.4 | 90.7 | 97.4 | 62.4 | 96.2 | 106 | 99.6 | 101 | 79.9 | 99.6 | 91.7 | 91.3 | 88.9 | 94.7 | 96.1 | 101 | 93.2 | 101 | 84.9 | 107 | 87.9 | 104 | 96.2 | 38.6 | 2.2 | 0.5 | 0.7 | 0.2 | 3.9 | – | > 10 | > 10 | 2.67 | > 10
Nc1nc(Cl)nc2c1ncn2[C@@H]1O[C@H](CO)[C@@H](O)[C@H]1O [2-chloroadenosine] | – | – | – | – | – | 110 | 103 | 98.8 | 113 | 84.5 | 93.4 | 102 | 103 | 102 | 93.7 | 101 | 96.1 | 102 | 107 | 101 | 99.9 | 101 | 104 | 104 | 81.8 | – | 0.1 | 0 | 0 | 0.3 | – | > 10 | > 10 | > 10 | > 10
Cc1ccc([N+](=O)[O-])cc1O [2-methyl-5-nitrophenol] | 96.9 | 105 | 101 | 94.3 | 95.3 | – | – | – | – | – | 99.9 | 94.4 | 94.3 | 98.6 | 96.2 | 108 | 96 | 101 | 96.1 | 102 | 106 | 91 | 99.4 | 100 | 102 | 0 | – | 0 | 0 | 0 | > 10 | > 10 | > 10 | > 10 | –
O=Cc1ccc(CO)o1 [5-HMF] | – | – | – | – | – | 96.6 | 98.2 | 97.3 | 94.5 | 104 | 103 | 99.9 | 99.7 | 105 | 97.3 | 99.6 | 99.8 | 104 | 102 | 106 | – | – | – | – | – | – | 0 | 0 | 0 | – | – | > 10 | > 10 | – | > 10
Nc1c2ccccc2nc2ccccc12 [9-aminoacridine] | 103 | 115 | 96.2 | 134 | 60.5 | 94.4 | 92.4 | 105 | 110 | 64.6 | 106 | 104 | 108 | 86.5 | 20.3 | 94.6 | 98 | 95 | 99.8 | 34.9 | 93.5 | 96.5 | 99.8 | 88.1 | 5.5 | 1.1 | 1.2 | 6.6 | 3.6 | 7.2 | – | 1.89 | 3.14 | 2.14 | –
O=C(NO)C1(CS(=O)(=O)c2ccc(Oc3ccc(Cl)cc3)cc2)CCOCC1 [CTS-1027] | 104 | 109 | 105 | 98.8 | 74.3 | 95 | 101 | 93.1 | 104 | 98.2 | 101 | 104 | 99.4 | 95 | 94.5 | 99.7 | 105 | 100 | 106 | 88.1 | 97.7 | 88.7 | 104 | 83.5 | 96.3 | 1.2 | 0 | 0 | 0 | 0 | – | > 10 | > 10 | > 10 | > 10
O=C(N[C@H](Cc1ccccc1)C(=O)O)c1sc2cc(F)ccc2c1Cl [CU-CPT-4a] | 99.3 | 102 | 91.1 | 93.5 | 102 | – | – | – | – | – | 107 | 103 | 102 | 99.1 | 104 | 97.2 | 97.1 | 94.4 | 98.2 | 96.7 | 107 | 106 | 92.7 | 90.1 | 100 | 0 | – | 0 | 0 | 0 | > 10 | > 10 | > 10 | > 10 | –
CCCCC(=O)NCCc1c(Cc2ccccc2)[nH]c2ccccc12 [DH-97] | 102 | 101 | 96.8 | 92.3 | 96 | – | – | – | – | – | 102 | 98.7 | 99.8 | 97 | 93.8 | 100 | 94.7 | 99.9 | 95.1 | 96.7 | 90.8 | 100 | 100 | 105 | 103 | 0 | – | 0 | 0 | 0 | > 10 | > 10 | > 10 | > 10 | –
O=C1C[C@@H](c2ccc(O)cc2)Oc2cc(O)ccc21 [MF-101] | 81.1 | 99.7 | 92.3 | 103 | 78.1 | 103 | 112 | 106 | 104 | 99.4 | 101 | 102 | 95.3 | 92.1 | 99.8 | 98.4 | 95.4 | 96.4 | 99.7 | 95.9 | 95.8 | 93.7 | 103 | 97.6 | 90.4 | 0.4 | 0 | 0 | 0 | 0 | – | > 10 | > 10 | > 10 | > 10
CCc1nc(-c2cccc(C)c2)c(-c2ccnc(NC(=O)c3ccccc3)c2)s1 [TAK-715] | 97.5 | 102 | 92 | 78.1 | 65.6 | 90.5 | 101 | 91.8 | 93.7 | 78.2 | 93.5 | 102 | 94.8 | 90.6 | 82.2 | 100 | 103 | 98.3 | 93.6 | 85.5 | 93 | 94.6 | 94.6 | 94.6 | 73.5 | 4.3 | 1 | 0.8 | 0.4 | 1.8 | – | > 10 | > 10 | – | > 10
Cc1nnc(-c2ccc3occ(-c4ccc([S+](C)[O-])cc4)c3c2)o1 (stereo not given) [TCS2002] | 103 | 96.7 | 98.5 | 108 | 108 | – | – | – | – | – | 96.1 | 95.9 | 99.1 | 90.6 | 101 | 102 | 103 | 101 | 99.3 | 98.5 | 94 | 97.2 | 99.3 | 93 | 112 | 0 | – | 0 | 0 | 0 | > 10 | > 10 | > 10 | > 10 | –
O=C(O[C@H]1C[N+]2(CCCOc3ccccc3)CCC1CC2)C(O)(c1cccs1)c1cccs1 [aclidinium] | 105 | 87.8 | 99.6 | 94.3 | 104 | – | – | – | – | – | 103 | 95.5 | 101 | 96.6 | 98.7 | 98.4 | 95.9 | 97.1 | 97.2 | 99.1 | 93.5 | 98.9 | 91.8 | 101 | 92.9 | 0 | – | 0 | 0 | 0 | > 10 | > 10 | > 10 | > 10 | –
Nc1nc2c(ncn2COCCO)c(=O)[nH]1 [acyclovir] | – | – | – | – | – | 95.3 | 101 | 102 | 106 | 119 | 110 | 92.7 | 98.3 | 98 | 101 | 91.6 | 101 | 94.7 | 99.7 | 104 | 96.3 | 92 | 95.1 | 94.7 | 96.3 | – | 0 | 0 | 0 | 0 | – | > 10 | > 10 | > 10 | > 10
NC(=O)NC1NC(=O)NC1=O (stereo not given) [allantoin] | 102 | 109 | 96.3 | 100 | 93.5 | – | – | – | – | – | 108 | 98.5 | 103 | 102 | 102 | 99 | 102 | 99.5 | 103 | 97.8 | 114 | 107 | 104 | 99.9 | 95.5 | 0 | – | 0 | 0 | 0 | > 10 | > 10 | > 10 | > 10 | –
